Source: US20240181049A1, “HARNESSING THE POWER OF MICROBIOTA AND METABOLITES FOR THE TREATMENT OF CANCER” (UTI LIMITED PARTNERSHIP, priority 2019, published 2024)

How the values were obtained:
MC38 tumor cells = assay: MC38 tumor cell viability in vitro; type: cell-based; settings: direct exposure in vitro, 72 hours
Protocol: FIG. 17A-17B. […] (a) MC38 tumor cells were treated with the indicated doses of inosine in vitro for 72 hours. Cell death and survival was assessed through flow cytometry. (b) MC38 tumor cells expressing full length ovalbumin (MC38-OVA) were treated with the indicated doses of inosine in vitro for 72 hours. In parallel, OVA-specific naïve CD4 and CD8 T cells from spleens of OT-II and OT-I mice, respectively, were activated with anti-CD3/anti-CD28 beads and rmIL-2 (20 IU/ml) for 72 hours. Inosine was then washed away from conditioned MC38-OVA cells and fresh medium together with activated T cells were added (100,000 MC38-OVA cells+25,000 CD4 cells+25,000 CD8 cells). 72 hours later, cell death and survival of MC38-OVA cells was assessed through flow cytometry. Grey and black dash-dotted lines indicate MC38-OVA cell viability and death when co-cultured with naïve OVA-specific CD4 and CD8 T cells. Data are mean±SEM and pooled from two individual experiments. n=6 biological replicates/condition. #, & P<0.05, **, P<0.01; (**=0.0001 vs 10 mM, #0.001 vs 10 mM and & 1 vs 10 mM)

T cells in the MLN = assay: Th1 activation in vivo after ovalbumin/CpG immunization; design: species or system GF mice; settings: 300 mg/kg/BW i.p.; vs vehicle
Protocol: FIG. 5A-5L: Inosine promotes Th1 activation and anti-tumor immunity. (a) Schematic overview of experimental setup to assess the effect of inosine on Th1 activation in vivo. (b, c) Representative dot plots and quantification (left and right panel respectively) of T-bet^+IFN-γ^+CD3ε^+ (b) CD8^+ or (c) CD4^+ T cells in the MLN. (d) Schematic overview of experimental setup to assess the effect of inosine on anti-tumor immunity. Upon palpable tumors, mice were treated with 100 μg anti-CTLA-4 i.p. (5 times every 72 hours) and in some groups 20 μg CpG i.p. (5 times every 72 hours). In addition, inosine (300 mg/KG/BW) or PBS was given daily orally (O), through gavage or systemically (S) through i.p. injection. (e) Tumor weight and quantification of IFN-γ^+ cells amongst (f) CD4^+ or (g) CD8^+ cells are shown. (h). Schematic overview to assess the requirement of A2AR signaling for inosine-induced anti-tumor immunity. […] (j) Tumor weight and quantification of IFN-γ^+ in (k) CD8^+ or (l) CD4^+ cells in the tumor are shown. […]
To evaluate the effect of inosine on Th1 activation, mice received 30 μg CpG, […] EndoFit Ovalbumin (both Invivogen) and 2 μg OVA323-339 (Sigma) i.p. and 24 hours later mice received 300 mg/kg/BW inosine or PBS as a control through i.p. injection. T cell differentiation was assessed 48 hours later. […]

MC38 [1] = assay: MC38 tumors in gnotobiotic Oligo-MM12 mice, inosine + anti-CTLA-4; type: in vivo
Protocol: (§1) FIG. 35A-35H. Inosine and live B. pseudolongum improve anti-CTLA-4 therapy efficacy in moderately diverse and complex microbiomes. A) Schematic overview of experimental setup to assess the effect of inosine on anti-tumor immunity in gnotobiotic mice (Oligo-MM12) stably colonized with 12 bacterial species. Upon palpable tumors, Oligo-MM12 colonized mice were treated with 100 μg anti-CTLA-4 i.p. or Isotype antibody (5 times every 72 hours). In addition, inosine (300 mg/KG/BW) or PBS was given daily orally through gavage. (B) Pictures of tumors and (C) tumor weight are shown at day 20. scale bars: 1 cm. (D) Quantification of intratumoral IFN-γ+ cells amongst CD8+ or CD4+ T cells are shown. (E) Schematic overview of experimental setup to assess the effect of inosine and B. pseudolongum on anti-tumor immunity in SPF mice. Following MC38 injection some mice received antibiotics (ABX), specifically Ampicillin 1 mg/ml, Colistin 1 mg/ml and Streptomycin 5 mg/ml for 7 days in the drinking water. Upon palpable tumors, antibiotics were removed and 100 μg anti-CTLA-4 (5 times every 72 hours) started. Mice concomitantly received either PBS, inosine (300 mg/KG/BW daily), B. pseudolongum or heat inactivated (H.i.) B. pseudolongum orally through gavage (5 times every 72 hours). (F) Pictures of tumors and (G) tumor weight are shown at day 20. scale bars: 1 cm. (H) Quantification of intratumoral IFN-γ+ cells amongst CD8+ or CD4+ cells are shown. Data are mean+/−SEM and (A-H) n=7 mice/group. P<0.05; **, P<0.01, ***, P<0.001.

MC38 [2] = assay: MC38 tumors in SPF mice, inosine or B. pseudolongum + anti-CTLA-4; type: in vivo; settings: oral gavage
Protocol: as §1, with “(F) Pictures of tumors and (G) tumor weight are shown at day 20. scale bars: 1 cm.” left out, “Data are mean+/−SEM and (A-H) n=7 mice/group. P<0.05; **, P<0.01, ***, P<0.001.” left out

A2AR = A2AR (Homo sapiens, UniProt P29274); settings: compared to adenosine; cited from earlier work
A2AR, sequence (P29274 whole entry): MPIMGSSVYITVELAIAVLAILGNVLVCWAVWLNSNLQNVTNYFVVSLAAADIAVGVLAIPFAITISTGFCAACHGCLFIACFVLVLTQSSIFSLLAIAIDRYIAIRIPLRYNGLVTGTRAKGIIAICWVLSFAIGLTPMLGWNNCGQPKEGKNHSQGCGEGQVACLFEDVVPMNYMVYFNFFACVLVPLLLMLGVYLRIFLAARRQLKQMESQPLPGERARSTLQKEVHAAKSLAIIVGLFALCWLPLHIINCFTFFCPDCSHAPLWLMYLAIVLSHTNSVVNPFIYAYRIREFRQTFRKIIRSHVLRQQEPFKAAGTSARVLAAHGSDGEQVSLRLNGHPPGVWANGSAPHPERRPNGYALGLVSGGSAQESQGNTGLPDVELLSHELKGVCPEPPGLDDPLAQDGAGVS

OC[C@H]1O[C@@H](n2cnc3c(O)ncnc32)[C@H](O)[C@@H]1O [inosine]
tumor cell viability (MC38 tumor cells): did not exert any effects on tumor cell viability
tumor cell viability (MC38 tumor cells; listed as Inosine): does not directly impact tumor cell viability
proportions of T-bet+, IFN-γ+ CD8+ and CD4+ T cells in the MLN (T cells in the MLN): increased
intra-tumoral IFN-γ+CD8+ and IFN-γ+CD4+ T cells (MC38 [1]): increased
tumor size (MC38 [1]): reduced tumor size
anti-tumor effects of anti-CTLA-4 (MC38 [1]; inosine 300 mg/KG/BW daily orally): able to promote the anti-tumor effects of anti-CTLA-4
efficacy of anti-CTLA-4 (MC38 [2]): could promote the efficacy of anti-CTLA-4
A2AR-dependent signaling bias, preference for ERK1/2 phosphorylation (A2AR): 3.3 fold
